# Columns and labels:
# [1] = tested on: purple nutsedge; assay: Test B pre/postemergence purple nutsedge; assay type: in vivo, Cyperus rotundus
# Procedure, shortened: (§1)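 Herbicidal effect was estimated by eye on a ten-point control scale after plants spent twelve to sixteen days in a greenhouse following soil or foliar treatment. Foliar sprays targeted plants at one to four leaves; all doses were formulated in a non-phytotoxic solvent with surfactant.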
# [2] = tested on: crabgrass; assay: Test B pre/postemergence crabgrass; assay type: in vivo, Digitaria sanguinalis
# Procedure, shortened: as §1
# [3] = tested on: soybean; assay: Test B pre/postemergence soybean; assay type: in vivo, Glycine max
# Procedure, shortened: as §1
# [4] = tested on: blackgrass; assay: Test B pre/postemergence blackgrass; assay type: in vivo, Alopecurus myosuroides
# Procedure, shortened: as §1
# [5] = tested on: bedstraw; assay: Test B pre/postemergence bedstraw; assay type: in vivo, Galium aparine
# Procedure, shortened: as §1
# [6] = tested on: corn; assay: Test B pre/postemergence corn; assay type: in vivo, Zea mays
# Procedure, shortened: as §1
# [7] = tested on: surinam grass; assay: Test B pre/postemergence surinam grass; assay type: in vivo, Brachiaria decumbens
# Procedure, shortened: as §1
# [8] = tested on: cocklebur; assay: Test B pre/postemergence cocklebur; assay type: in vivo, Xanthium strumarium
# Procedure, shortened: as §1
# [9] = tested on: sugar beet; assay: Test B pre/postemergence sugar beet; assay type: in vivo, Beta vulgaris; conditions: for Plant response rating, Sugarbeets: Rate 250 g/ha
# Procedure, shortened: as §1
# [10] = tested on: bamyardgrass; assay: Test B flood test barnyardgrass; assay type: in vivo, Echinochloa crus-galli
# Procedure, shortened: (§2)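 Flood test on plants grown to the 2-leaf stage; treated plants kept in greenhouse twelve to sixteen days, then visually rated against controls on a 0 (no effect) to 10 (complete control) scale.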
# [11] = tested on: giant foxtail; assay: Test B pre/postemergence giant foxtail; assay type: in vivo, Setaria faberii
# Procedure, shortened: as §1
# [12] = tested on: pigweed; assay: Test B pre/postemergence pigweed; assay type: in vivo, Amaranthus retroflexus
# Procedure, shortened: as §1
# [13] = tested on: smallflower flatsedge; assay: Test B flood test smallflower flatsedge; assay type: in vivo, Cyperus difformis
# Procedure, shortened: as §2
# [14] = tested on: rice; assay: Test B flood test rice; assay type: in vivo, Oryza sativa
# Procedure, shortened: as §2
# [15] = tested on: velvetleaf; assay: Test B pre/postemergence velvetleaf; assay type: in vivo, Abutilon theophrasti; conditions: for Plant response rating, Velvetleaf: Rate 250 g/ha
# Procedure, shortened: as §1
# [16] = tested on: wild oat; assay: Test B pre/postemergence wild oat; assay type: in vivo, Avena fatua; conditions: for Plant response rating, Wild oats: Rate 250 g/ha
# Procedure, shortened: as §1
# [17] = Postemergence, Rate 125 g/ha, scale of 0 to 10 where 0 is no effect and 10 is complete control
# [18] = Postemergence, Rate 250 g/ha, scale 0 to 10, 0 no effect, 10 complete control
# [19] = Preemergence, Rate 62 g/ha, scale 0 to 10 (0 no effect, 10 complete control)
# [20] = Preemergence, Rate 125 g/ha, scale 0 to 10 (0 no effect, 10 complete control)
# [21] = Preemergence, Rate 250 g/ha, scale of 0 to 10 where 0 is no effect and 10 is complete control
# [22] = Preemergence, Rate 500 g/ha, scale 0 to 10 (0 no effect, 10 complete control)
# [23] = Rate 62 g/ha, Postemergence, scale of 0 to 10 where 0 is no effect and 10 is complete control
# [24] = Rate 500 g/ha, Postemergence, scale 0 to 10, 0 no effect, 10 complete control
# [25] = Rate 250 g/ha, Postemergence, scale 0 to 10, 0 is no effect, 10 is complete control
# [26] = Postemergence, Rate 62 g/ha, scale 0 to 10, 0 is no effect, 10 is complete control
# [27] = Preemergence, Rate 125 g/ha, 0 is no effect, 10 is complete control
# [28] = Preemergence, scale of 0 to 10 where 0 is no effect and 10 is complete control
# [29] = Postemergence, scale 0 to 10, 0 is no effect, 10 is complete control
# [30] = Postemergence (flood test species), Rate 125 g/ha, scale of 0 to 10 where 0 is no effect and 10 is complete control
# [31] = Rate 250 g/ha, headed Pre-emergence (flood test species), scale 0 to 10 (0 no effect, 10 complete control)
# [32] = Rate 500 g/ha, headed Pre-emergence (flood test species), scale 0 to 10 (0 no effect, 10 complete control)
# [33] = Rate 500 g/ha, listed under Postemergence (flood test species), scale 0 to 10, 0 no effect, 10 complete control
# [34] = Rate 1000 g/ha, Pre-emergence (as headed), scale 0 to 10
# [35] = Rate 62 g/ha, Postemergence section, flood test species, scale of 0 to 10 where 0 is no effect and 10 is complete control
# [36] = Rate 250 g/ha, Postemergence (flood test), scale 0 to 10, 0 is no effect, 10 is complete control
# [37] = Rate 2000 g/ha, Pre-emergence (as headed), scale 0 to 10
structure (smiles),measurement,setting,value
Cc1nn(C)c(Cl)c1-n1c(=O)on(C(=O)N(c2ccccc2)C(C)C)c1=O [Compound 121],Nutsedge plant response rating,[1]; [17],0
same,Nutsedge plant response rating,[1]; [18],0
same,Nutsedge plant response rating,[1]; [19],0
same,"Plant response rating, Nutsedge",[1]; [20],0
same,"Plant response rating, Nutsedge",[1]; [21],0
same,Nutsedge plant response rating,[1]; [22],0
same,Nutsedge plant response rating,[1]; [23],0
same,Nutsedge plant response rating,[1]; [24],0
same,Crabgrass plant response rating,[2]; [17],6
same,Crabgrass plant response rating,[2]; [18],9
same,Crabgrass plant response rating,[2]; [19],2
same,"Plant response rating, Crabgrass",[2]; [20],7
same,"Plant response rating, Crabgrass",[2]; [21],8
same,Crabgrass plant response rating,[2]; [22],9
same,Crabgrass plant response rating,[2]; [23],4
same,Crabgrass plant response rating,[2]; [24],9
same,Soybean plant response rating,[3]; [17],5
same,Soybean plant response rating,[3]; [19],0
same,"Plant response rating, Soybean",[3]; [20],0
same,"Plant response rating, Soybean",[3]; [21],0
same,Soybean plant response rating,[3]; [22],0
same,Soybean plant response rating,[3]; [23],5
same,"Plant response rating, Soybean",[3]; [25],6
same,Soybean plant response rating,[3]; [24],6
same,Blackgrass plant response rating,[4]; [17],0
same,Blackgrass plant response rating,[4]; [18],2
same,Blackgrass plant response rating,[4]; [19],0
same,"Plant response rating, Blackgrass",[4]; [20],4
same,"Plant response rating, Blackgrass",[4]; [21],7
same,Blackgrass plant response rating,[4]; [22],9
same,Blackgrass plant response rating,[4]; [23],0
same,Blackgrass plant response rating,[4]; [24],6
same,Bedstraw plant response rating,[5]; [19],0
same,"Plant response rating, Bedstraw",[5]; [20],0
same,"Plant response rating, Bedstraw",[5]; [21],2
same,Bedstraw plant response rating,[5]; [22],5
same,Bedstraw plant response rating,[5]; [24],6
same,Corn plant response rating,[6]; [17],0
same,Corn plant response rating,[6]; [18],0
same,Corn plant response rating,[6]; [19],0
same,"Plant response rating, Corn",[6]; [20],0
same,"Plant response rating, Corn",[6]; [21],0
same,Corn plant response rating,[6]; [22],0
same,Corn plant response rating,[6]; [23],0
same,Corn plant response rating,[6]; [24],0
same,B. signalgrass plant response rating,[7]; [26],0
same,B. signalgrass plant response rating,[7]; [17],0
same,B. signalgrass plant response rating,[7]; [18],3
same,B. signalgrass plant response rating,[7]; [19],0
same,"Plant response rating, B. signalgrass",[7]; [20],4
same,"Plant response rating, B. signalgrass",[7]; [21],8
same,B. signalgrass plant response rating,[7]; [22],9
same,B. signalgrass plant response rating,"[7]; Rate 500 g/ha, Postemergence, scale of 0 to 10 where 0 is no effect and 10 is complete control",3
same,Cocklebur plant response rating,[8]; [17],2
same,Cocklebur plant response rating,[8]; [18],2
same,Cocklebur plant response rating,[8]; [19],0
same,"Plant response rating, Cocklebur",[8]; [20],0
same,Cocklebur plant response rating,[8]; [22],0
same,Cocklebur plant response rating,[8]; [23],0
same,Cocklebur plant response rating,[8]; [24],5
same,Sugarbeets plant response rating,[9]; [17],0
same,Sugarbeets plant response rating,[9]; [19],0
same,Sugarbeets plant response rating (0 to 10 scale),[9]; [27],3
same,"Plant response rating, Sugarbeets",[9]; [28],7
same,Sugarbeets plant response rating,[9]; [22],7
same,Sugarbeets plant response rating,[9]; [23],0
same,"Plant response rating, Sugarbeets",[9]; [29],4
same,Sugarbeets plant response rating,[9]; [24],4
same,Barnyardgrass plant response rating,[10]; [30],0
same,Barnyardgrass plant response rating,[10]; [26],0
same,Barnyardgrass plant response rating,[10]; [31],0
same,"Plant response rating, Barnyardgrass",[10]; [32],8
same,Barnyardgrass plant response rating,[10]; [33],6
same,Barnyardgrass plant response rating,[10]; [34],9
same,Barnyardgrass plant response rating,"[10]; Rate 2000 g/ha, Pre-emergence (as headed), scale 0 to 10, 0 no effect, 10 complete control",9
same,Barnyardgrass plant response rating,"[10]; flood test, listed under Postemergence, Rate 250 g/ha, scale 0 to 10, 0 no effect, 10 complete control",0
same,Giant foxtail plant response rating,[11]; [17],1
same,Giant foxtail plant response rating,[11]; [18],7
same,Giant foxtail plant response rating,[11]; [19],8
same,"Plant response rating, Giant foxtail",[11]; [20],8
same,"Plant response rating, Giant foxtail",[11]; [21],8
same,Giant foxtail plant response rating,[11]; [22],10
same,Giant foxtail plant response rating,[11]; [23],1
same,Giant foxtail plant response rating,[11]; [24],8
same,Redroot pigweed plant response rating,[12]; [17],2
same,Redroot pigweed plant response rating,[12]; [19],4
same,"Plant response rating, Redroot pigweed",[12]; [20],7
same,"Plant response rating, Redroot pigweed",[12]; [21],8
same,Redroot pigweed plant response rating,[12]; [22],8
same,Redroot pigweed plant response rating,[12]; [23],2
same,"Plant response rating, Redroot pigweed",[12]; [25],3
same,Redroot pigweed plant response rating,[12]; [24],5
same,S. Flatsedge plant response rating,[13]; [30],5
same,S. Flatsedge plant response rating,"[13]; Pre-emergence, Rate 1000 g/ha, scale 0 to 10 (0 no effect, 10 complete control)",9
same,S. Flatsedge plant response rating,[13]; [35],3
same,"Plant response rating, S. Flatsedge",[13]; [36],5
same,S. Flatsedge plant response rating,[13]; [31],0
same,"Plant response rating, S. Flatsedge",[13]; [32],3
same,S. Flatsedge plant response rating,[13]; [33],6
same,S. Flatsedge plant response rating,[13]; [37],9
same,Rice plant response rating,[14]; [30],0
same,Rice plant response rating,[14]; [35],0
same,"Plant response rating, Rice",[14]; [36],0
same,Rice plant response rating,[14]; [31],0
same,"Plant response rating, Rice",[14]; [32],0
same,Rice plant response rating,[14]; [33],0
same,Rice plant response rating,[14]; [34],3
same,Rice plant response rating,[14]; [37],5
same,Velvetleaf plant response rating,[15]; [17],0
same,Velvetleaf plant response rating,[15]; [19],0
same,Velvetleaf plant response rating (0 to 10 scale),[15]; [27],0
same,"Plant response rating, Velvetleaf",[15]; [28],0
same,Velvetleaf plant response rating,[15]; [22],0
same,Velvetleaf plant response rating,[15]; [23],0
same,"Plant response rating, Velvetleaf",[15]; [29],4
same,Velvetleaf plant response rating,[15]; [24],4
same,Wild oats plant response rating,[16]; [17],0
same,Wild oats plant response rating,[16]; [19],0
same,Wild oats plant response rating (0 to 10 scale),[16]; [27],0
same,"Plant response rating, Wild oats",[16]; [28],5
same,Wild oats plant response rating,[16]; [22],6
same,Wild oats plant response rating,[16]; [23],0
same,"Plant response rating, Wild oats",[16]; [29],0
same,Wild oats plant response rating,[16]; [24],0

# — patent US6737383B1, “Herbicidal oxadiazolidines” (priority 1999, dated 2004)
